Source: ChEMBL document CHEMBL4177722, “Small molecule inhibitors of anthrax edema factor” (Bioorg Med Chem Lett, 2018)

Assays:
[1] = biological target: T1, Calmodulin-sensitive adenylate cyclase (Bacillus anthracis, UniProt P40136); experiment: Inactivation of Bacillus anthracis edema factor in presence of CaM incubated for 10 to 240 mins by EnzChek pyrophosphate assay
T1 sequence (P40136 whole entry): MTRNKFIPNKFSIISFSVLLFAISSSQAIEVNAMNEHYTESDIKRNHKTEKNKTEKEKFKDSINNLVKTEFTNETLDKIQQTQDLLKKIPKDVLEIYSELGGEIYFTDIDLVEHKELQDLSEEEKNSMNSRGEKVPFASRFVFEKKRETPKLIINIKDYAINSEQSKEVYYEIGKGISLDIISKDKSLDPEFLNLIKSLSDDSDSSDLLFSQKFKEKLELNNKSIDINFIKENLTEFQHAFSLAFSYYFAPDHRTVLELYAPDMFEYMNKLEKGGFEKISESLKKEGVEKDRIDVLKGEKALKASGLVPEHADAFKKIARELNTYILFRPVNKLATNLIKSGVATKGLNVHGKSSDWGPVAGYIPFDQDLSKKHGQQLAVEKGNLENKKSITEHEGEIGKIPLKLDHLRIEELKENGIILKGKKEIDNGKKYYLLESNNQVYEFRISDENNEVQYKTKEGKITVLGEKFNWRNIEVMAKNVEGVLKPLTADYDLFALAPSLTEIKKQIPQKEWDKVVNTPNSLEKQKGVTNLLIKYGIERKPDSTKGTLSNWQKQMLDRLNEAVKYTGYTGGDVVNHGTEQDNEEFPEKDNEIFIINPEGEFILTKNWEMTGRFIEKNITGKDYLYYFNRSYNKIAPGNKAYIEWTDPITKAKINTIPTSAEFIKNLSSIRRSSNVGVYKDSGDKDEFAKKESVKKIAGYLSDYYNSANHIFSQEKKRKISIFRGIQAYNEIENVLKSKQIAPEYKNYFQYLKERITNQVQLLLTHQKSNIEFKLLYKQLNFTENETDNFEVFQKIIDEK

[2] = (§1) Cytotoxicity against mouse RAW264.7 cells assessed a reduction in cell viability incubated for 24 hrs in presence of 10% FBS by MTT assay; type: cell-based; conditions: RAW264.7 cells
RAW264.7 [3] = experiment: Cytotoxicity against mouse RAW264.7 cells assessed a reduction in cell viability incubated for 24 hrs in absence of 10% FBS by MTT assay; type: cell-based; conditions: raw264.7, 24 h
[4] = biological target: T2, Calmodulin-sensitive adenylate cyclase (Bacillus anthracis) (UniProt P40136); experiment: Inactivation of Bacillus anthracis edema factor assessed as Kinact/Ki ratio in presence of CaM incubated for 10 to 240 mins by EnzChek pyrophosphate assay relative to FSBA
T2 sequence (whole entry): T1 sequence (P40136 whole entry)

[5] = biological target: T2, Calmodulin-sensitive adenylate cyclase (Bacillus anthracis); experiment: Inactivation of Bacillus anthracis edema factor assessed as Kinact/Ki ratio in presence of CaM incubated for 10 to 240 mins by EnzChek pyrophosphate assay
[6] = biological target: T2, Calmodulin-sensitive adenylate cyclase (Bacillus anthracis); experiment: Inactivation of Bacillus anthracis edema factor assessed as inactivation rate constant in presence of CaM incubated for 10 to 240 mins by EnzChek pyrophosphate assay
[7] = Stability in C57BL/6 mouse plasma assessed as half life at 10 uM by LC-MS method; type: ADME, cell-free, C57B/6
RAW264.7 [8] = experiment: as §1; type: cell-based; conditions: raw264.7, 24 h
[9] = biological target: T3, Inhibitor of nuclear factor kappa-B kinase subunit beta (Homo sapiens) (UniProt O14920); experiment: Inhibition of human IKKbeta at 10 uM by ADP-Glo kinase assay
T3 sequence (whole entry): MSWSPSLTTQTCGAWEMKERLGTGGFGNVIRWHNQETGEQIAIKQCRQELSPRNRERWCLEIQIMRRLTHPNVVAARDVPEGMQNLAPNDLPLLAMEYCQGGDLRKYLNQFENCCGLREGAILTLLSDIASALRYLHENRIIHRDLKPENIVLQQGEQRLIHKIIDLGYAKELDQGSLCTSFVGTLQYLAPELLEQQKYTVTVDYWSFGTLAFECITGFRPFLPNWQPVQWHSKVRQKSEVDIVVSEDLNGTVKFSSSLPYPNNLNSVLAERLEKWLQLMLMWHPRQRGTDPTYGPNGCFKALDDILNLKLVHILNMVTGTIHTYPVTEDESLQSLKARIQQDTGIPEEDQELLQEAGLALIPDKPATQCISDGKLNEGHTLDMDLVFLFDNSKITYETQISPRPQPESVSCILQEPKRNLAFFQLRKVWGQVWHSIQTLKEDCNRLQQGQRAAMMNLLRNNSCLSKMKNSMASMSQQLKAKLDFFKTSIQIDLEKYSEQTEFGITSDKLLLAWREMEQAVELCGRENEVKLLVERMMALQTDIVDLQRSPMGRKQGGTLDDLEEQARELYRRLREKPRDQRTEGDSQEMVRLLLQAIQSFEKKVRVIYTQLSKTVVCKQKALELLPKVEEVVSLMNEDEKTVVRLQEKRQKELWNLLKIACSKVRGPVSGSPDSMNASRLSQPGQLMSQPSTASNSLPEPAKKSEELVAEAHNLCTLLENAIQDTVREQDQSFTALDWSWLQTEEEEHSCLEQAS

[10] = biological target: Casein kinase I isoform gamma-1 (Homo sapiens) (UniProt Q9HCP0); experiment: Inhibition of human CK1g1 at 10 uM by ADP-Glo kinase assay
Sequence of Casein kinase I isoform gamma-1 (Homo sapiens) (Q9HCP0 whole entry, looked up, canonical isoform): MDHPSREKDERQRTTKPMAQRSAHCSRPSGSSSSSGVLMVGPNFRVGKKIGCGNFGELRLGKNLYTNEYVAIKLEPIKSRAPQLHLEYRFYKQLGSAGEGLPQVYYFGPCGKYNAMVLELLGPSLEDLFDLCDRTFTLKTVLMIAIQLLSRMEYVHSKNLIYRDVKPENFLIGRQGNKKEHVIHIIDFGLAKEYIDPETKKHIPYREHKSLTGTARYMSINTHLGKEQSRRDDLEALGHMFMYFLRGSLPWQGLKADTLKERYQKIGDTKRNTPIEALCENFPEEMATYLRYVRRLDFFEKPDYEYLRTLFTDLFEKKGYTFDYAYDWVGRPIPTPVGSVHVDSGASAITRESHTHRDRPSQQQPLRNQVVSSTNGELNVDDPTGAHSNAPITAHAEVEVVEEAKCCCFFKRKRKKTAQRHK

[11] = biological target: Mitogen-activated protein kinase 14 (Homo sapiens) (UniProt Q16539); experiment: Inhibition of human p38alpha at 10 uM by ADP-Glo kinase assay
Sequence of Mitogen-activated protein kinase 14 (Homo sapiens) (Q16539 whole entry): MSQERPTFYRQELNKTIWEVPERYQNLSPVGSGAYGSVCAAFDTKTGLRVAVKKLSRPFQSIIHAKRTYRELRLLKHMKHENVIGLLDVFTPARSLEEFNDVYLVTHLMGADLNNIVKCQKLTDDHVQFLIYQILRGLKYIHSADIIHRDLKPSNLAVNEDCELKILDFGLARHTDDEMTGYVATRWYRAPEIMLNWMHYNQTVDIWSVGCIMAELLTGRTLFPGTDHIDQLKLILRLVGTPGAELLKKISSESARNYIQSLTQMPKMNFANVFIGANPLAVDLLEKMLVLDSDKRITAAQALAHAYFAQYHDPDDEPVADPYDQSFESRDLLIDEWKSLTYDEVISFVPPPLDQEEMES

[12] = biological target: RAC-alpha serine/threonine-protein kinase (Homo sapiens) (UniProt P31749); experiment: Inhibition of human AKT1 at 10 uM by ADP-Glo kinase assay
Sequence of RAC-alpha serine/threonine-protein kinase (Homo sapiens) (P31749 whole entry): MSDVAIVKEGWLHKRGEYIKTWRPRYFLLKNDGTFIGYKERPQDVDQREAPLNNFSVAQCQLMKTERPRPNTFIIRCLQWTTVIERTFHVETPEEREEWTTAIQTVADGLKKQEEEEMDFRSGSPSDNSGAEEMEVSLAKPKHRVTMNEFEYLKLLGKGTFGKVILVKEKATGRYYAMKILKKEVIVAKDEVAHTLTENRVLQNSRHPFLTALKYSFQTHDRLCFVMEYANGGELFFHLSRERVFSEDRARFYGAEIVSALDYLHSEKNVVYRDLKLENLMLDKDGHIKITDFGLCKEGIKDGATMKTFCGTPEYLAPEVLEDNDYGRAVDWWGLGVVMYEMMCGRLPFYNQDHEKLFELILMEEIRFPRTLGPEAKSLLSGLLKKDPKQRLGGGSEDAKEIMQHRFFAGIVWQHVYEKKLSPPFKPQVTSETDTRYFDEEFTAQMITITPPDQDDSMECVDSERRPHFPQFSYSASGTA

[13] = biological target: Casein kinase II subunit alpha (Homo sapiens) (UniProt P68400); experiment: Inhibition of human CK2a1 at 10 uM by ADP-Glo kinase assay
Sequence of Casein kinase II subunit alpha (Homo sapiens) (P68400 whole entry, looked up): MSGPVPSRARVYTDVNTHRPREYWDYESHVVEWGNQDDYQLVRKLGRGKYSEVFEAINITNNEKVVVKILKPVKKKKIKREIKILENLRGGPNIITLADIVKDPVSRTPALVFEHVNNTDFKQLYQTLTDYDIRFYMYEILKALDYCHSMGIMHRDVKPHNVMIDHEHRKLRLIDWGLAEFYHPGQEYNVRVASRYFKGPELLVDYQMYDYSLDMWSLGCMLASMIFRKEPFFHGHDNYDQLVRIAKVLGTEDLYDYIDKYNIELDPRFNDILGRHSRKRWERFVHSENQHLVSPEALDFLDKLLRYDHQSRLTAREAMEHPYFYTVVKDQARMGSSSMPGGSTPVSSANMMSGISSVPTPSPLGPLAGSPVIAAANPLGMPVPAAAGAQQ

[14] = biological target: Misshapen-like kinase 1 (Homo sapiens) (UniProt Q8N4C8); experiment: Inhibition of human MINK at 10 uM by ADP-Glo kinase assay
Sequence of Misshapen-like kinase 1 (Homo sapiens) (Q8N4C8 whole entry, looked up, canonical isoform): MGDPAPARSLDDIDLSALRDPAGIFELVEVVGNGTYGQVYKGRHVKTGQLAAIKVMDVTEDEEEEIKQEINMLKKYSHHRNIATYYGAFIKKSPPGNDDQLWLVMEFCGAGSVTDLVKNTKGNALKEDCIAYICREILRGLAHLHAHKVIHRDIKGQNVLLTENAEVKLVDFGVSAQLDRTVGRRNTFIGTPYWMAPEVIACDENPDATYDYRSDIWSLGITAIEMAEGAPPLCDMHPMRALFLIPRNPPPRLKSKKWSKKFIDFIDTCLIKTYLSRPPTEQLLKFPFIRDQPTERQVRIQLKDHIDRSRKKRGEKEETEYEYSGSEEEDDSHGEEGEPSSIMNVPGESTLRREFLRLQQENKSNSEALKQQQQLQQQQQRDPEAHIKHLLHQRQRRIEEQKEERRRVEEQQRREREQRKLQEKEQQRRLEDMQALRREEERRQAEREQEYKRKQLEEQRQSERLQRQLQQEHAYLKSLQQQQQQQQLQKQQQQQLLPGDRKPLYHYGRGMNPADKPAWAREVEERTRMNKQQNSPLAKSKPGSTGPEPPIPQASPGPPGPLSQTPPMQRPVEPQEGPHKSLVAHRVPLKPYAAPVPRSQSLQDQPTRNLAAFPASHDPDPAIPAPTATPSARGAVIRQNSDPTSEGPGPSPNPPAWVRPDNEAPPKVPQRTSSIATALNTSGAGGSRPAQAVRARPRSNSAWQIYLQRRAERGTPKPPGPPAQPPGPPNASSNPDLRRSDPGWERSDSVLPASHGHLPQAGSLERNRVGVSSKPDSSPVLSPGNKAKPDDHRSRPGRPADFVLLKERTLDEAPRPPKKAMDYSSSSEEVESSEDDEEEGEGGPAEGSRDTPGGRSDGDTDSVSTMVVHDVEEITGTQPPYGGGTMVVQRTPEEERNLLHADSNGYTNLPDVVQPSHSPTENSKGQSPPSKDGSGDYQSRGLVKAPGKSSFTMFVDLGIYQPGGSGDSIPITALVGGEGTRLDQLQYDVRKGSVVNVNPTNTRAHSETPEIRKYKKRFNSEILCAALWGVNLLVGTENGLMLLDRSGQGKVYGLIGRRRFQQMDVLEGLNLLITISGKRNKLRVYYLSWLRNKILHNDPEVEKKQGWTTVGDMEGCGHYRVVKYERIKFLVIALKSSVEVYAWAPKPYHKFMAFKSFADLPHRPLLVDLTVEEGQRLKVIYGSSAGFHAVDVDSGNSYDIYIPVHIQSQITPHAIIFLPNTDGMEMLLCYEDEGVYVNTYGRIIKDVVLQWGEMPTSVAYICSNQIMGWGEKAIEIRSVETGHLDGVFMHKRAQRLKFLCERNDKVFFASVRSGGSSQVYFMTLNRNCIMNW

[15] = biological target: Casein kinase I isoform alpha (Homo sapiens) (UniProt P48729); experiment: Inhibition of human CK1a1 at 10 uM by ADP-Glo kinase assay
Sequence of Casein kinase I isoform alpha (Homo sapiens) (P48729 2-337 limits assumed): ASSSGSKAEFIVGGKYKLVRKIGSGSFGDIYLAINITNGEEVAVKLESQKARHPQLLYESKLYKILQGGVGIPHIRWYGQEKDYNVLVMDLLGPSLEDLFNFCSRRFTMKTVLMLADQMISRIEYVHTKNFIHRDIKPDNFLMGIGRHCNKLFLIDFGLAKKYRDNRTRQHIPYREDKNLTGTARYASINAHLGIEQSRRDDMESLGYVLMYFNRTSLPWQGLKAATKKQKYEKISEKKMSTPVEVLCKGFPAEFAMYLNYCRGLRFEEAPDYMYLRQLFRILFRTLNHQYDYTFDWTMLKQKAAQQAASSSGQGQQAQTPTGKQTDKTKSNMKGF

[16] = biological target: T2, Calmodulin-sensitive adenylate cyclase (Bacillus anthracis); experiment: Irreversible inactivation of Bacillus anthracis edema factor pre-incubated for 90 mins followed by drug filtration by EnzChek pyrophosphate assay

Row | Compound | Ki [1] [µM] | CC50 at 24 h [2] [µM] | Activity (RAW264.7 [3]) | Ratio [4] | Ratio [5] | Kinact [6] [min⁻¹] | half-life at 10 µM [7] [h] | CC50 (RAW264.7 [8]) [µM] | inhibition [9] [%] | inhibition [10] [%] | inhibition [11] [%] | inhibition [12] [%] | inhibition [13] [%] | inhibition [14] [%] | inhibition [15] [%] | inhibition [16]
1 | Nc1ncnc2c1ncn2[C@@H]1CCCN(C(=O)c2ccc(S(=O)(=O)F)cc2)C1 | 96.5 | > 100 | Non-Toxic | 0.5 | 6.7 | 0.039 | – | – | – | – | – | – | – | – | – | –
2 | Cc1cc(OC2CCN(Cc3ccc(S(=O)(=O)F)cc3)CC2)cc(N)n1 | 42.2 | > 100 | Non-Toxic | 0.6 | 7.9 | 0.02 | – | – | – | – | – | – | – | – | – | –
3 | Nc1cc(OC2CCN(C(=O)c3ccc(S(=O)(=O)F)cc3)CC2)ccn1 | – | > 100 | Non-Toxic | 0.4 to 1.4 | 5.8 to 19.3 | 0.049 to 0.069 | 0.66 | – | – | – | – | – | – | – | – | –
4 | Nc1cc(OCCNC(=O)c2ccc(S(=O)(=O)F)cc2)ccn1 | 127 | > 100 | Non-Toxic | 0.3 | 3.6 | 0.028 | – | – | – | – | – | – | – | – | – | –
5 | Nc1cc(OCCCNCc2ccc(S(=O)(=O)F)cc2)ccn1 | 222 | > 100 | Non-Toxic | 0.4 | 4.7 | 0.063 | – | – | – | – | – | – | – | – | – | –
6 | Nc1ncnc2c1ncn2CCCNC(=O)c1ccc(S(=O)(=O)F)cc1 | 37.7 | > 100 | Non-Toxic | 0.4 | 5.3 | 0.012 | – | – | – | – | – | – | – | – | – | –
7 | Nc1ncnc2c1ncn2CCOC(=O)c1ccc(S(=O)(=O)F)cc1 | 25.9 | > 100 | Non-Toxic | 0.5 | 6.9 | 0.011 | – | – | – | – | – | – | – | – | – | –
8 | Cc1nc(N)c2ncn(C3CCN(Cc4ccc(S(=O)(=O)F)cc4)CC3)c2n1 | 14.7 | > 100 | Non-Toxic | 2.3 | 31.2 | 0.028 | – | – | – | – | – | – | – | – | – | –
9 | Cc1nc(N)cc(OC2CCN(C(=O)c3ccc(S(=O)(=O)F)cc3)CC2)n1 | 27.6 | > 100 | Non-Toxic | 5.1 | 67.8 | 0.112 | – | – | – | – | – | – | – | – | – | –
10 | Nc1cc(O[C@@H]2CCN(C(=O)c3ccc(S(=O)(=O)F)cc3)C2)ccn1 | 38.9 | – | Non-Toxic | 0.3 | 3.5 | 0.008 | – | – | – | – | – | – | – | – | – | –
11 | Cc1nc(N)c2cnn(C3CCN(Cc4ccc(S(=O)(=O)F)cc4)CC3)c2n1 | 4.6 | > 100 | Non-Toxic | 14.2 | 190 | 0.052 | 1.2 | – | – | – | – | – | – | – | – | –
12 | Nc1cc(OCCNCc2ccc(S(=O)(=O)F)cc2)ccn1 | 49.6 | > 100 | Non-Toxic | 0.7 | 9.6 | 0.029 | – | – | – | – | – | – | – | – | – | –
13 | Nc1cc(OCc2ccc(S(=O)(=O)F)cc2)ccn1 | 955 | – | Non-Toxic | 0.3 | 3.5 | 0.198 | – | 86 | – | – | – | – | – | – | – | –
14 | Nc1cc(OCCCNC(=O)c2ccc(S(=O)(=O)F)cc2)ccn1 | 88.1 | > 100 | Non-Toxic | 0.6 | 8.1 | 0.043 | – | – | – | – | – | – | – | – | – | –
15 | Nc1cc(OC2CN(C(=O)c3ccc(S(=O)(=O)F)cc3)C2)ccn1 | 10.9 | – | Non-Toxic | 0.4 | 4.9 | 0.003 | – | – | – | – | – | – | – | – | – | –
16 | CN[C@@H]1C[C@H]2O[C@@](C)([C@@H]1OC)n1c3ccccc3c3c4c(c5c6ccccc6n2c5c31)C(=O)NC4 | – | – | – | – | – | – | – | – | 64 | 38 | 11 | 61 | 64 | 98 | 51 | –
17 | Nc1ncnc2c1ncn2C1CCN(C(=O)c2ccc(S(=O)(=O)F)cc2)CC1 | 9.4 | > 100 | Non-Toxic | 1.3 | 18 | 0.01 | – | – | – | – | – | – | – | – | – | –
18 | CCOC(=O)C1=C[C@]2(CC)CCCN3CCc4c(n1c1ccccc41)[C@@H]32 [VINPOCETINE] | – | – | – | – | – | – | 13.1 | – | – | – | – | – | – | – | – | –
19 | Cc1nc(N)c2ncn(C3CCN(C(=O)c4ccc(S(=O)(=O)F)cc4)CC3)c2n1 | 16.5 | > 100 | Non-Toxic | 4.7 | 62.8 | 0.062 | – | – | – | – | – | – | – | – | – | –
20 | Nc1ncnc2c1ncn2[C@@H]1O[C@H](COC(=O)c2ccc(S(=O)(=O)F)cc2)[C@@H](O)[C@H]1O | 18.4 | > 100 | Non-Toxic | – | 13.4 | 0.015 | – | – | – | – | – | – | – | – | – | Dose-dependent effect
21 | Cc1nc(N)cc(OCCNC(=O)c2ccc(S(=O)(=O)F)cc2)n1 | 286 | > 100 | Non-Toxic | 0.7 | 9.2 | 0.158 | – | – | – | – | – | – | – | – | – | –
22 | Cc1nc(N)c2cnn(CCCNC(=O)c3ccc(S(=O)(=O)F)cc3)c2n1 | 34.8 | > 100 | Non-Toxic | 4.3 | 58 | 0.121 | – | – | – | – | – | – | – | – | – | –
23 | Nc1ncnc2c1cnn2C1CCN(C(=O)c2ccc(S(=O)(=O)F)cc2)CC1 | 3.7 | > 100 | Non-Toxic | 86.7 | 1160 | 0.26 | – | – | – | – | – | – | – | – | – | –
24 | Cc1nc(N)c2cnn(C3CCN(C(=O)c4ccc(S(=O)(=O)F)cc4)CC3)c2n1 | 2.1 | > 100 | Non-Toxic | 43.3 | 581 | 0.072 | 1.2 | – | – | – | – | – | – | – | – | –
